Laboratory results as given in paper PMC11167047 (Cell Death Discovery, 2024).

Key:
Assay in all cases: kinome screen (33PanQinase)
Assay type in all cases: biochemical
[1] = biological target: T1, DNAPK (Homo sapiens, UniProt P78527)
T1 construct: purchased Reaction Biology Europe GmbH (formerly ProQinase)
Method: (§1) The Kinome Screening was performed by Reaction Biology Europe GmbH (http://reactionbiology.com; Freiburg i. Br., Germany).

[2] = biological target: T2, MERTK (Homo sapiens, UniProt Q12866)
T2 construct: purchased Reaction Biology Europe GmbH (formerly ProQinase)
T2 sequence (Q12866 21-999): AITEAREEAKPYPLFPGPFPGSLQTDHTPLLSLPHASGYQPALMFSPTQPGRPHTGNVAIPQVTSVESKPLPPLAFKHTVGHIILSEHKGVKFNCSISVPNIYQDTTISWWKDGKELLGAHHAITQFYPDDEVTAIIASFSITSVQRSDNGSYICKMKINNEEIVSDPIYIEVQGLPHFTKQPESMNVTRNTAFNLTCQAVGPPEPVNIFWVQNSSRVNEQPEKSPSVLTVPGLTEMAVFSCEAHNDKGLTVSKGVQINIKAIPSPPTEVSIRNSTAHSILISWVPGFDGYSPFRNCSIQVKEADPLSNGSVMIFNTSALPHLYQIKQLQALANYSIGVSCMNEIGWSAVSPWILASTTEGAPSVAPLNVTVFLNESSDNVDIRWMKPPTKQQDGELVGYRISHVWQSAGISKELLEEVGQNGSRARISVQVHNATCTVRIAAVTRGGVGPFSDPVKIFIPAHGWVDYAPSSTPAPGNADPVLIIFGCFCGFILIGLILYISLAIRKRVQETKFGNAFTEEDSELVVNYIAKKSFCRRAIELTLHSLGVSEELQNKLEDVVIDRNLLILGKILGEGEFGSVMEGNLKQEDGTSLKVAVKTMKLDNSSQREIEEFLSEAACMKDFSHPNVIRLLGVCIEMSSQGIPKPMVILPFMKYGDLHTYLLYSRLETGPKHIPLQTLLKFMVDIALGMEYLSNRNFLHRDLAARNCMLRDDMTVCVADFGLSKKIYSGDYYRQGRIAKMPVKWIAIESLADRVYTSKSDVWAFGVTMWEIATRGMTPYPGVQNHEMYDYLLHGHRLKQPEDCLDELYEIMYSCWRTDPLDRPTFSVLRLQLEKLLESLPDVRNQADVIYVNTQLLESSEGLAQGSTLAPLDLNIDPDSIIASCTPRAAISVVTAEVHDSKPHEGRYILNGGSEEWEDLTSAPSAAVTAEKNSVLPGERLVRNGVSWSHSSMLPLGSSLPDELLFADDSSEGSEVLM
Method: as §1

[3] = biological target: T3, PKCΔ (Homo sapiens, UniProt Q05655)
T3 construct: purchased Reaction Biology Europe GmbH (formerly ProQinase)
Method: as §1

[4] = biological target: T4, FLT3 (Homo sapiens, UniProt P36888)
T4 construct: purchased Reaction Biology Europe GmbH (formerly ProQinase)
T4 sequence (P36888 27-993): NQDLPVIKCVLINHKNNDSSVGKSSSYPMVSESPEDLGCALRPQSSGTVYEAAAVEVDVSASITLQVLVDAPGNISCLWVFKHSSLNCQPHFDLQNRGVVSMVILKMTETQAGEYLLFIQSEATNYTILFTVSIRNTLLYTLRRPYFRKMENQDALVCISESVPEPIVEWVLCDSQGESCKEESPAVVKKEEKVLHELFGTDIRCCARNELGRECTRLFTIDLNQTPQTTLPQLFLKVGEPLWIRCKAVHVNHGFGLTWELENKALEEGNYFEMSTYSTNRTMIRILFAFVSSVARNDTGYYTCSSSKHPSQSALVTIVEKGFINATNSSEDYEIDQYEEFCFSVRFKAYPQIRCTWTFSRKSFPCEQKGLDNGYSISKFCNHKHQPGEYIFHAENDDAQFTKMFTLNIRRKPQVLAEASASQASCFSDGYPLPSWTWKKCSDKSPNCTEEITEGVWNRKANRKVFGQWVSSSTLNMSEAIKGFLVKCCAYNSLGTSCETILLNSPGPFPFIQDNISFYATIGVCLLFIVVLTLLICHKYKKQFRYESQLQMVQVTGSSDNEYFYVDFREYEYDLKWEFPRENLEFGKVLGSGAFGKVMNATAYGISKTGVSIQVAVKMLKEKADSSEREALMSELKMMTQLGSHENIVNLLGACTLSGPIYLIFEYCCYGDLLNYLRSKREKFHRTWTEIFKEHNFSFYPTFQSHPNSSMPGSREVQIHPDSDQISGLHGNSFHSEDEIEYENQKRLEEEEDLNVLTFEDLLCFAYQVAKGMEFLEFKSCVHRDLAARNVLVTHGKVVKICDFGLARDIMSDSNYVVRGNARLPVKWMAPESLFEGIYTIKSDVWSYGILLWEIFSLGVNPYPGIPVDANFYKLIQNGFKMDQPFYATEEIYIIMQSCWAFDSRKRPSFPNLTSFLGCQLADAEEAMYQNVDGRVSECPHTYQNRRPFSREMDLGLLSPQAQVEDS
Method: as §1

[5] = biological target: T5, MUSK (Homo sapiens, UniProt O15146)
T5 construct: purchased Reaction Biology Europe GmbH (formerly ProQinase)
T5 sequence (O15146 24-869): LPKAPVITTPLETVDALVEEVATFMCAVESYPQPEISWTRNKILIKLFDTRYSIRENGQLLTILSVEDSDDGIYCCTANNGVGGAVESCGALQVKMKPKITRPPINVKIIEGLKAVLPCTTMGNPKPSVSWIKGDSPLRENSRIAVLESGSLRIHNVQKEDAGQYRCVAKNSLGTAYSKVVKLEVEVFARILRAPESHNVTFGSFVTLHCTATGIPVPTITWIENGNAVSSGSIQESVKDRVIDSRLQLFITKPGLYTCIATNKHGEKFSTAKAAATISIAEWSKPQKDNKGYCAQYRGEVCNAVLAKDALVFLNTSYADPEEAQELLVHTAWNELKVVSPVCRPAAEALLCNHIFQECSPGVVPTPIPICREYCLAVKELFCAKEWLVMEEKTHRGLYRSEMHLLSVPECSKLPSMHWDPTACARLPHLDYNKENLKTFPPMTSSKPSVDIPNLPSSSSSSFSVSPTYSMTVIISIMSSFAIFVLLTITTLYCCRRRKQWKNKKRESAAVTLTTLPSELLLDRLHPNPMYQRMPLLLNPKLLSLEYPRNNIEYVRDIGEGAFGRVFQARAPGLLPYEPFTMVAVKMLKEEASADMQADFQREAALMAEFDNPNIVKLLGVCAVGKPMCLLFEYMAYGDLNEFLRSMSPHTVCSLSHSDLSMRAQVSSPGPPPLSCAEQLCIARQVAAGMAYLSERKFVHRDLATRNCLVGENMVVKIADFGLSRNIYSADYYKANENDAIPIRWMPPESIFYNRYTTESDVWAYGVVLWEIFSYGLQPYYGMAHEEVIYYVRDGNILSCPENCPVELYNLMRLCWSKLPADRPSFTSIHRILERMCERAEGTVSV
Method: as §1

T3 sequence (Q05655 whole entry, stated change not applied): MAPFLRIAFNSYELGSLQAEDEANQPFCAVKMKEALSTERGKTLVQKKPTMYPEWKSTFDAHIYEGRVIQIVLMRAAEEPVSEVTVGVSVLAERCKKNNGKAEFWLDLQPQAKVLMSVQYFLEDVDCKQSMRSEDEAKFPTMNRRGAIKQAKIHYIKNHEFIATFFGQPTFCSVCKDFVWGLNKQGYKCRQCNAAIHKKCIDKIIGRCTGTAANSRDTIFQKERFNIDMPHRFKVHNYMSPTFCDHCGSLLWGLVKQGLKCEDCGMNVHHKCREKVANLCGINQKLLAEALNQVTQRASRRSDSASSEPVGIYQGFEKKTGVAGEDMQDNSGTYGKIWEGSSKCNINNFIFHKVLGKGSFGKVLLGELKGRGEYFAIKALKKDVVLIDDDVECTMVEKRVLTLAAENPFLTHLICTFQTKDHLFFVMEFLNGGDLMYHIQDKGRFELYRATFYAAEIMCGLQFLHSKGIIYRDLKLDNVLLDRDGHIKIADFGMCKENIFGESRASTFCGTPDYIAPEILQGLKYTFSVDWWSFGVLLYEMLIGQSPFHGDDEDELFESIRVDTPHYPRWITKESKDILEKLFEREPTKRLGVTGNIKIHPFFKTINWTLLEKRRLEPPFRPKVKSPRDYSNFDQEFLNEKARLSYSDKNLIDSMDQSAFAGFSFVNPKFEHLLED

Row | Compound | residual kinase activity ([1]; 0.03 µM) | residual kinase activity ([1]; 0.3 µM) | residual kinase activity ([2]; 0.03 µM) | residual kinase activity ([2]; 0.3 µM) | residual kinase activity ([3]; 0.03 µM) | residual kinase activity ([3]; 0.3 µM) | residual kinase activity ([4]; 0.03 µM) | residual kinase activity ([4]; 0.3 µM) | residual kinase activity ([5]; 0.03 µM) | residual kinase activity ([5]; 0.3 µM) | residual kinase activity ([1]; 3 µM) | residual kinase activity ([2]; 3 µM) | residual kinase activity ([3]; 3 µM) | residual kinase activity ([4]; 3 µM) | residual kinase activity ([5]; 3 µM)
1 | COc1ccnc2[nH]cc(-c3cc(N)nc(N)c3)c12 [meriolin 16] | 100 % of control | 97 % of control | 97 % of control | 86 % of control | 47 % of control | 6 % of control | 49 % of control | 21 % of control | 88 % of control | 70 % of control | – | – | – | – | –
2 | c1ccc(CNc2cc(-c3c[nH]c4ncccc34)ccn2)cc1 [meriolin 36] | – | 71 % of control | – | 69 % of control | – | 4 % of control | – | 9 % of control | – | 28 % of control | 25 % of control | 36 % of control | 0 % of control | 2 % of control | 5 % of control
